From the Kinase Knowledgebase extract (Sharma et al. 2016)
pIC50: −log10 of the molar value.

Each compound was assayed against EGFR (UniProt P00533).
Sequence of EGFR (P00533 whole entry, looked up): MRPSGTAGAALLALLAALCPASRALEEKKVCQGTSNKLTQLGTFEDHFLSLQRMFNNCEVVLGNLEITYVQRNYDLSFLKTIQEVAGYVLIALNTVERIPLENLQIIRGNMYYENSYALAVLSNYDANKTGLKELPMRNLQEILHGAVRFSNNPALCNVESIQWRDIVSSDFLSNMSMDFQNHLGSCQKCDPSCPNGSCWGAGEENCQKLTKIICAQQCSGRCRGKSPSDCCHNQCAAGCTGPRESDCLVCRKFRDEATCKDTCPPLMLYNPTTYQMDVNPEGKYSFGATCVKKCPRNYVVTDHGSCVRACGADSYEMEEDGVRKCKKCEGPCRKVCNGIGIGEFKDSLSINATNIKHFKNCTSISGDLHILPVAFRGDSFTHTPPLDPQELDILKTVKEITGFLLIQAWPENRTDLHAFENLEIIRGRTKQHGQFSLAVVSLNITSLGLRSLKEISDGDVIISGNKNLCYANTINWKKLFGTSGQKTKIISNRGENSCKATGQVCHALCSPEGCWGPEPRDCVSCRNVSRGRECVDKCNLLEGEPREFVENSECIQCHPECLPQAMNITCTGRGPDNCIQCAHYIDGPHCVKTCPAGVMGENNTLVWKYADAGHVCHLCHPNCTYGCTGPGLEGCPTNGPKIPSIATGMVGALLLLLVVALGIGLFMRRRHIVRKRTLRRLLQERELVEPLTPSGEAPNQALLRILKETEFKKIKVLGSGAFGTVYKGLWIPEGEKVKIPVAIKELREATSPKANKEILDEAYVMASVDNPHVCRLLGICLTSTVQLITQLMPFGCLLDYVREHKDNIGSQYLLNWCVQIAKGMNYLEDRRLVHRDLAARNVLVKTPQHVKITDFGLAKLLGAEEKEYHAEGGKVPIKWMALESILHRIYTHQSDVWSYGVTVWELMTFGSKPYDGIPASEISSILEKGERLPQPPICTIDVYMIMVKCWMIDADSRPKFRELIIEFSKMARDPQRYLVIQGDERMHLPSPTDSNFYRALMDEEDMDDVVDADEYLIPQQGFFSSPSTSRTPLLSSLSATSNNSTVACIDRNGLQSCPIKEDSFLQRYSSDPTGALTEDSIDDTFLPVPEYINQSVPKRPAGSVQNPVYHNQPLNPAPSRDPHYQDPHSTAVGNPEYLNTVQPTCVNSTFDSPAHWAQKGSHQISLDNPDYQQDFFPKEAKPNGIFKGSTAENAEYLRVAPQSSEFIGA

Row | Structure (SMILES) | pIC50
1 | COc1cc2c(Nc3ccc(Cl)c(Cl)c3)ncnc2cc1OCc1nccn1Cc1ccccc1 | > 7.30
2 | CCC(CC)CN1CCOC(COc2cc3ncnc(Nc4ccc(Cl)c(Cl)c4)c3cc2OC)C1 (configuration not stated) | > 7.30
3 | COc1cc2c(Nc3ccc(Cl)c(Cl)c3)ncnc2cc1OCC1CN(CCCCF)CCO1 (configuration not stated) | > 7.30
4 | COc1cc2c(Nc3ccc(Cl)c(Cl)c3)ncnc2cc1OCc1nc([C@@H]2CCCN2C)no1 | > 7.30
5 | COc1cc2c(Nc3ccc(Cl)c(Cl)c3)ncnc2cc1OCCC1CC2CCC(C1)N2C (configuration not stated) | > 7.30
6 | COc1cc2c(Nc3c(F)cc(F)cc3Br)ncnc2cc1O[C@@H]1CO[C@@H]2[C@H]1OC[C@H]2F | > 7.30
7 | COc1cc2c(Nc3ccc(Cl)c(Cl)c3)ncnc2cc1OCC1CN(CCC(C)C)CCCO1 (configuration not stated) | > 7.30
8 | C=CCCCCCCN1CCOC(COc2cc3ncnc(Nc4ccc(Cl)c(Cl)c4)c3cc2OC)C1 (configuration not stated) | > 7.30
9 | COc1cc2c(Nc3ccc(Cl)c(Cl)c3)ncnc2cc1OCC1CN(CCOCCO)CCO1 (configuration not stated) | > 7.30
10 | COc1cc2c(Nc3ccc(Cl)cc3F)ncnc2cc1OCC1CN(C)CCO1 (configuration not stated) | > 7.30
11 | COc1cc2c(Nc3ccc(Br)c(Cl)c3F)ncnc2cc1OC[C@H]1CN2CCOC[C@H]2CO1 | > 7.30
12 | COc1cc2c(Nc3ccc(Cl)c(Cl)c3)ncnc2cc1OCc1csc(N2CCOCC2)n1 | > 7.30
13 | COc1cc2c(Nc3ccc(Br)cc3)ncnc2cc1O[C@@H]1CO[C@@H]2[C@H]1OC[C@H]2F | > 7.30
14 | COc1cc2c(Nc3ccc(Cl)c(Cl)c3)ncnc2cc1OCc1csc(COC(=O)c2ccccc2)n1 | > 7.30
15 | COc1cc2c(Nc3ccc(Br)c(Cl)c3)ncnc2cc1O[C@H]1CO[C@@H]2[C@H]1OC[C@@H]2N | > 7.30

Now from value to compound:

Row | pIC50 | Structure (SMILES)
16 | > 7.30 | COc1cc2c(Nc3ccc(Cl)c(Cl)c3)ncnc2cc1OCCN1CCCCC1
17 | > 7.30 | COc1cc2c(Nc3ccc(Cl)c(Cl)c3)ncnc2cc1OCC1CN(C/C=C/Br)CCO1 (configuration not stated)
18 | > 7.30 | CCOC(=O)C(C)N1CCOC(COc2cc3ncnc(Nc4ccc(Cl)c(Cl)c4)c3cc2OC)C1 (configuration not stated)
19 | > 7.30 | COc1cc2c(Nc3ccc(Cl)c(Cl)c3)ncnc2cc1OC[C@@H]1CN2CCC[C@H]2CO1
20 | > 7.30 | COc1cc2c(Nc3ccc(Cl)c(Br)c3)ncnc2cc1OCC1CN(C)CCO1 (configuration not stated)
21 | > 7.30 | COc1cc2c(Nc3ccc(Cl)c(Cl)c3)ncnc2cc1OCCC1CN(C)CC(C)(C)O1 (configuration not stated)
22 | > 7.30 | CCC(C(=O)N1CCOC(COc2cc3ncnc(Nc4ccc(Cl)c(Cl)c4)c3cc2OC)C1)c1ccccc1 (configuration not stated)
23 | > 7.30 | COc1cc2c(Nc3ccc(Cl)c(Cl)c3Cl)ncnc2cc1OCC1CN(C)CCO1 (configuration not stated)
24 | > 7.30 | COc1cc2c(Nc3ccc(Cl)c(Cl)c3)ncnc2cc1OCC1CN(S(C)(=O)=O)CCCO1 (configuration not stated)
25 | > 7.30 | COc1cc2c(Nc3ccc(Cl)c(Cl)c3)ncnc2cc1OCc1csc(N2CCN(C)CC2)n1
26 | > 7.30 | COc1cc2c(Nc3ccc(F)c(F)c3F)ncnc2cc1O[C@@H]1CO[C@@H]2[C@H]1OC[C@H]2F
27 | > 7.30 | COc1cc2c(Nc3ccc(Cl)c(Cl)c3)ncnc2cc1OCC1CN(CCC2OCCO2)CCO1 (configuration not stated)
28 | > 7.30 | CCC1(C)CN(C)CC(COc2cc3ncnc(Nc4ccc(Cl)c(Cl)c4)c3cc2OC)O1 (configuration not stated)
29 | > 7.30 | COc1cc2c(Nc3ccc(F)c(Cl)c3F)ncnc2cc1O[C@H]1CO[C@H]2[C@@H]1OC[C@@H]2OC
30 | > 7.30 | COc1cc2c(Nc3ccc(Cl)c(Cl)c3)ncnc2cc1OCc1csc(C2CCCCN2)n1 (configuration not stated)
31 | > 7.30 | COc1cc2c(Nc3ccc(Cl)c(Cl)c3)ncnc2cc1OC1CO[C@@H]2[C@@H](OC)CO[C@H]12 (some centres not stated)
32 | > 7.30 | COc1cc2c(Nc3ccc(Cl)c(Cl)c3)ncnc2cc1O[C@H]1CO[C@H]2[C@@H]1OC[C@@H]2OC
33 | > 7.30 | CCN1CCC(c2nc(COc3cc4ncnc(Nc5ccc(Cl)c(Cl)c5)c4cc3OC)no2)CC1
34 | > 7.30 | COc1cc2c(Nc3ccc(F)c(Cl)c3F)ncnc2cc1OC[C@@H]1CN2CCOC[C@H]2CO1
35 | > 7.30 | COc1cc2c(Nc3ccc(Cl)c(Cl)c3C)ncnc2cc1OCC1CN(C)CCO1 (configuration not stated)
36 | > 7.30 | COc1cc2c(Nc3cccc(Cl)c3)ncnc2cc1O[C@@H]1CO[C@@H]2[C@H]1OC[C@H]2F
37 | > 7.30 | COc1cc2c(Nc3ccc(Cl)c(Cl)c3)ncnc2cc1OCCN1CCOCC1
